# pIC50: −log10 of the molar value. Counter-ions that a name gives are not always drawn. Like-named read-outs stand apart in the source and are kept apart here.
# Legend:
# [1] = test system: rat uterus; assay: Rat uterotrophic/antiuterotrophic test procedure; assay type: in vivo; settings: for Uterine wet weight: daily ip, 4-day immature rat
# Protocol: Rat Uterotrophic/Antiuterotrophic Test Procedure
# The estrogenic and antiestrogenic properties of the compounds were determined in a 4-day immature rat uterotrophic assay (as described previously by L. J. Black and R. L. Goode, Life Sciences, 26, 1453 (1980)). Immature Sprague-Dawley rats (female, 18 days old) were tested in groups of six. […] On day 4 the animals were sacrificed by CO2 asphyxiation and their uteri were removed and stripped of excess lipid, any fluid removed and the wet weight determined. A small section of one horn was submitted for histology and the remainder used to isolate total RNA in order to evaluate complement component 3 gene expression.
# Representative compounds of this invention were evaluated in the rat uterotrophic/antiuterotrophic assay to determine their in vivo effects on the rat uterus.
# [2] = test system: Ishikawa uterine cells; assay: Ishikawa cell alkaline phosphatase test procedure; assay type: cell-based, human; settings: for Alkaline phosphatase activity, percent of response related to 1 nM 17β-estradiol: 48 h; for Behaviour in the uterine cell line (agonist/antagonist): in words, from Table 2
# Protocol: Ishikawa Cell Alkaline Phosphatase Test Procedure
# Cell Maintenance and Treatment
# Ishikawa cells were maintained in DMEM/F12 (50%:50%) containing phenol red+10% fetal bovine serum and the medium was supplemented with 2 mM Glutamax, 1% Pen/Strap and 1 mM sodium pyruvate. Five days prior to the beginning of each evaluation (treatment of cells) the medium was changed to phenol red-free DMEM/F12+10% dextran coated charcoal stripped serum. On the day before treatment, cells were harvested using 0.5% trypsin/EDTA and plated at a density of 5×10^4 cells/well in 96-well tissue culture plates. […] Cells were treated for 48 h prior to assay. […] Sample population for at each dose was n=8.
# Alkaline Phosphatase Test Procedure
# At the end of 48 h the media was aspirated and cells were washed three times with phosphate buffered saline (PBS); 50 μL of lysis buffer (0.1 M Tris-HCl, pH 9.8, 0.2% Triton X-100) was added to each well. Plates were placed at −80° C. for a minimum of 15 minutes. Plates were thawed at 37° C. followed by the addition of 150 μL of 0.1 M Tris-HCl, pH 9.8, containing 4 mM para-nitrophenylphosphate (pNPP) to each well (final concentration, 3 mM pNPP).
# Absorbance and slope calculations were made using the KineticCalc Application program (Bio-Tek Instruments, Inc., Winooski, Vt.). Results are expressed as the mean +/−S.D. of the rate of enzyme reaction (slope) averaged over the linear portion of the kinetic reaction curve (optical density readings every 5 minutes for 30 minutes absorbance reading).
# The four compounds were used as reference standards:
# A description of these methods is described by Holinka, C. F., Hata, H., Kuramoto, H. and Gurpide, E. (1986) Effects of steroid hormones and antisteroids on alkaline phosphatase activity in human endometrial cancer cells (Ishikawa Line). Cancer Research, 46:2771-2774, and by Littlefield, B. A., Gurpide, E., Markiewicz, L., McKinley, B. and Hochberg, R. B. (1990) A simple and sensitive microtiter plate estrogen bioassay based on stimulation alkaline phosphatase in Ishikawa cells; Estrogen action of D5 adrenal steroids. Endocrinology, 6:2757-2762.
# [3] = target: T1, human estrogen receptor (Homo sapiens, UniProt P03372); assay: In vitro estrogen receptor binding test procedure ([3H]-17β-estradiol competition)
# T1 construct: expressed in transfected cells; host or cells: Chinese Hamster ovary (CHO) cells; ribosome-free cytosol
# T1 sequence (P03372 1-595): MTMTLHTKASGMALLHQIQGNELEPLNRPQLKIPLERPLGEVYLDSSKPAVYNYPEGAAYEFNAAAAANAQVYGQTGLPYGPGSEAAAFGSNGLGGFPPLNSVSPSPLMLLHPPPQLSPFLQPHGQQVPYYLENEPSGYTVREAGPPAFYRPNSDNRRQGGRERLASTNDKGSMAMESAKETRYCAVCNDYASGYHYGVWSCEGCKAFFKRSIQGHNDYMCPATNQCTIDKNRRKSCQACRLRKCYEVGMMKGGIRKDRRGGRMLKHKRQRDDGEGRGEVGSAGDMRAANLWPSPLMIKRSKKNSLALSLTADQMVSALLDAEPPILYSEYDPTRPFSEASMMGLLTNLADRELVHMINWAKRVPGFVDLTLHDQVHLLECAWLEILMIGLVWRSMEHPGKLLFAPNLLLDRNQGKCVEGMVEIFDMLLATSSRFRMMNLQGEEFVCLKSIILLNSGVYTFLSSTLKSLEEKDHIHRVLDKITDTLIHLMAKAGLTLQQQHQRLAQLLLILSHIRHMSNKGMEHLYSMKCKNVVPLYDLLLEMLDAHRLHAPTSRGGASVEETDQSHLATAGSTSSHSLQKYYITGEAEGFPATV
# Protocol: In vitro Estrogen Receptor Binding Test Procedure
# Chinese Hamster ovary (CHO) cells overexpressing the estrogen receptor were grown in […] dishes in DMEM+10% dextran coated charcoal, stripped fetal bovine serum. The plates were washed twice with PBS and once with 10 mM Tris-HCl, pH 7.4, 1 mM EDTA. Cells were harvested by scraping the surface and then the cell suspension was placed on ice. Cells were disrupted with a hand-held motorized tissue grinder using two, 10-second bursts. The crude preparation was centrifuged at 12,000 g for 20 minutes followed by a 60 minute spin at 100,000 G to produce a ribosome free cytosol. The cytosol was then frozen and stored at −80° C. Protein concentration of the cytosol was estimated using the BCA assay with reference standard protein.
# Binding Test Procedure Conditions
# 100 uG/100 uL of the receptor preparation was aliquoted per well. […] The plate was incubated at room temperature for 2.5 h. At the end of this incubation period 150 uL of ice-cold dextran coated charcoal (5% activated charcoal coated with 0.05% 69K dextran) was added to each well and the plate was immediately centrifuged at 99 g for 5 minutes at 4° C. 200 uL of the supernatant solution was then removed for scintillation counting. Samples were counted to 2% or 10 minutes, whichever occurs first. […] Also, wells containing radioactivity but no cytosol were processed with charcoal to estimate unremovable DPM of [^3H] […] 96-well plates were used because they have proven to bind the least amount of estradiol.
# Counts per minute (CPM) of radioactivity were automatically converted to disintegrated per minute (DPM) by the Beckman LS 7500 Scintillation Counter using a set of quenched standards to generate a H# for each sample. To calculate the % of estradiol binding in the presence of 100 or 500 fold competitor the following formula was applied:
# ((DPM sample−DPM not removed by charcoal/(DPM estradiol−DPM not removed by charcoal))×100%=% of estradiol binding
# For the generation of IC50 curves, % binding is plotted vs compound. […] Values are reported as IC50 values. […] For a description of these methods, see Hulme, E. C., ed. 1992. Receptor-Ligand Interactions: A Practical Approach. IRL Press, New York.(see especially chapter 8).
# Compounds were tested for their ability to displace estradiol in a human ER-receptor preparation as described above.
# [4] = 1 uM compound + 1 nM E2, antagonist mode
Structure (SMILES),Uterine wet weight ([1]; 1 ug Cpd),Uterine wet weight ([1]; 100 ug Cpd),"Alkaline phosphatase activity, percent of response related to 1 nM 17β-estradiol ([2]; 0.01 uM compound, agonist mode)","Alkaline phosphatase activity, percent of response related to 1 nM 17β-estradiol ([2]; 0.1 uM compound, agonist mode)","Alkaline phosphatase activity, percent of response related to 1 nM 17β-estradiol [2, 4]","Alkaline phosphatase activity, percent of response related to 1 nM 17β-estradiol ([2]; 1 uM compound, agonist mode)",pIC50 ([3]; read-out: Receptor IC50),pIC50 [3],Behaviour in the uterine cell line (agonist/antagonist) [2],Uterine wet weight ([1]; 1 ug E2 + 100 ug Cpd),"Effect on rat uterus (agonist/antagonist) ([1]; in words, dosed alone or with 17β-estradiol)"
"CC12CCC3c4ccc(O)cc4CC(Sc4ccc(-c5ccc(C=CC(=O)O)cc5)cc4)C3C1CCC2O (stereo not drawn) [Example 13, (7α,17β) 7-{4-[4′-(2-Carboxy)-ethenyl]biphenyl}thio-estra-1,3,5(10)-triene-3,17-diol sodium salt]",48.0 mg,55.8 mg,11%,72%,101%,95%,6.40,–,–,–,–
"CCCCN(C)C(=O)CCCCCCCCCCS[C@@H]1C(=O)c2cc(O)ccc2[C@H]2CC[C@]3(C)[C@@H](O)CC[C@H]3[C@H]12 [Example 16, (7α,17β) 7-[10-(N-Butyl-N-methyl-carbamoyl)-decyl]thio-3,17-dihydroxy-estra-1,3,5(10)-triene-6-one]",41.3 mg,72.5 mg,7%,22%,66%,42%,–,6.52,–,–,–
"CCCCN(C)C(=O)CCCCCCCCCCS[C@H]1[C@@H]2[C@H](CC[C@]3(C)[C@@H](O)CC[C@@H]23)c2ccc(O)cc2[C@H]1O [Example 17, (6α,7α,17β) 7-[10-(N-Butyl-N-methyl-carbamoyl)-decyl]thio-estra-1,3,5(10)-triene-3,6,17-triol]",36.5 mg,64.2 mg,0%,0%,28%,1%,6.40,–,pure estrogen antagonists,–,–
"CCCCN(C)C(=O)CCCCCCCCCCS[C@@H]1Cc2cc(O)ccc2[C@H]2CC[C@]3(C)[C@@H](O)CC[C@H]3[C@@H]21 [Example 18, (7α,17β) 7-[10-(N-Butyl-N-methyl-carbamoyl)-decyl]thio-estra-1,3,5(10)-triene-3,17-diol]",31.8 mg,41.6 mg,0%,0%,1%,0%,–,7.00,pure estrogen antagonists,46.0 mg,very efficacious antagonist

# Source: patent publication US6355630B1, “Estra-1,3,5(10)-triene-7α-thioethers” (priority 1997, dated 2002)
